According to ChEMBL document CHEMBL6121055, “Strategic Mutations in Designer Native Peptides Combat NLRP3 Inflammasome Activation in Neurodegenerative Disorders” (J Med Chem, 2025):
Activity calls are given as the source filed them. No cut-off for these calls is given here. Residues, ends and D or L forms follow the SMILES beside them. *: point of attachment. Biotin = O=C1N[C@H]2[C@H](CS[C@H]2CCCCC(=O)*)N1

Experiments:
[1] = molecular target: T1, Apoptosis-associated speck-like protein containing a CARD (Mus musculus) (UniProt Q9EPB4); experiment: Binding affinity to ASC in LPS-stimulated mouse N9 cells at 10 to 30 uM incubated overnight by Western blot based pull down assay; format: cell-based; conditions: dose 10-30 µM
T1 sequence (whole entry): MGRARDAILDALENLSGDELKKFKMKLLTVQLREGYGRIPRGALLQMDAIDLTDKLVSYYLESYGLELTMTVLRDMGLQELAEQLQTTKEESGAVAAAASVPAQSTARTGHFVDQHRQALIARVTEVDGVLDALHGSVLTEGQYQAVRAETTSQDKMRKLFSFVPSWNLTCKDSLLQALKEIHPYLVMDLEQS

N9 [2] = experiment: Binding affinity to NLRP3 in LPS-stimulated mouse N9 cells at 10 to 30 uM incubated overnight by Western blot based pull down assay; format: cell-based; conditions: dose 10-30 µM
[3] = Cytotoxicity against mouse N9 cells assessed as reduction in cell viability at 100 uM incubated for 24 hrs by MTT assay; format: toxicity, cell-based; conditions: n9, 24 h
[4] = molecular target: Apoptosis-associated speck-like protein containing a CARD (Homo sapiens, UniProt Q9ULZ3); experiment: Binding affinity to Alexa647-labeled ASC (unknown origin) assessed as dissociation constant incubated for 5 mins by fluorescence spectra based analysis
Chain of Apoptosis-associated speck-like protein containing a CARD (Q9ULZ3 whole entry): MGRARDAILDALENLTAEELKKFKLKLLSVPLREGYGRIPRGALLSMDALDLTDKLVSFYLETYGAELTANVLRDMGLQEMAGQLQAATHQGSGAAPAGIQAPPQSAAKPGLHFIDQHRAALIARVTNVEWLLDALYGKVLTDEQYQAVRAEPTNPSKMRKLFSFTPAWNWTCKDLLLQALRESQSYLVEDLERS

N9 [5] = experiment: Inhibition of NLRP3 inflammasome activation in LPS/ATP-stimulated mouse N9 cells assessed as inhibition of caspase-1 mRNA expression at 20 uM by qRT-PCR analysis; format: cell-based
N9 [6] = experiment: Inhibition of NLRP3 inflammasome activation in LPS/ATP-stimulated mouse N9 cells assessed as inhibition of IL-1beta mRNA expression at 20 uM by qRT-PCR analysis; format: cell-based
N9 [7] = experiment: Inhibition of NLRP3 inflammasome activation mediated pyroptosis in LPS/ATP-stimulated mouse N9 cells assessed as reduction in cell death at 100 uM measured after 24 hrs by MTT assay; format: cell-based

| Compound | Activity [3] | further results |
| --- | --- | --- |
| CC[C@H](C)[C@H](NC(=O)[C@H](C)NC(=O)[C@H](C)NC(=O)[C@H](CC(C)C)NC(=O)[C@@H](NC(=O)[C@H](Cc1c[nH]c2ccccc12)NC(=O)[C@@H](NC(=O)CCCC[C@@H]1SC[C@@H]2NC(=O)N[C@@H]21)C(C)C)[C@@H](C)CC)C(=O)N[C@@H](CC(N)=O)C(=O)N[C@@H](CCCNC(=N)N)C(=O)N[C@@H](CCCNC(=N)N)C(=O)O (Biotin-VWILAAINRR-OH) |  | Activity [1]: Active; Activity (N9 [2]): inactive |
| C[C@H](NC(=O)[C@@H](N)CCCCN)C(=O)N[C@@H](CCC(N)=O)C(=O)N[C@@H](CCCNC(=N)N)C(=O)N[C@@H](CC(=O)O)C(=O)O (H-KAQRD-OH) | Non-toxic |  |
| CC[C@H](C)[C@H](NC(=O)[C@H](C)NC(=O)[C@H](C)NC(=O)[C@H](Cc1ccccc1)NC(=O)[C@@H](NC(=O)[C@H](Cc1c[nH]c2ccccc12)NC(=O)[C@@H](N)C(C)C)[C@@H](C)CC)C(=O)N[C@@H](CC(N)=O)C(=O)N[C@@H](CCCNC(=N)N)C(=O)N[C@@H](CCCNC(=N)N)C(=O)O (H-VWIFAAINRR-OH) | Non-toxic | Kd [4]: 850 nM; inhibition (N9 [5]): Active; Better Activity Observed; inhibition (N9 [6]): Active; Better Activity Observed; inhibition (N9 [7]): Active |
| CC[C@H](C)[C@H](NC(=O)[C@H](CCSC)NC(=O)[C@H](CC(C)C)NC(=O)[C@@H](NC(=O)[C@H](C)NC(=O)[C@H](CC(C)C)NC(=O)[C@@H](N)CC(=O)O)[C@@H](C)O)C(=O)N[C@@H](CC(=O)O)C(=O)N[C@@H](Cc1ccccc1)C(=O)O (H-DLATLMIDF-OH) | Non-toxic |  |
| CC[C@H](C)[C@H](NC(=O)[C@H](Cc1c[nH]c2ccccc12)NC(=O)[C@@H](N)C(C)C)C(=O)N[C@@H](Cc1ccccc1)C(=O)N[C@@H](C)C(=O)N[C@@H](CCCCN)C(=O)N[C@@H](C)C(=O)N[C@@H](CCCCN)C(=O)N[C@@H](CCCNC(=N)N)C(=O)N[C@@H](CC(=O)O)C(=O)O (H-VWIFAKAKRD-OH) | Non-toxic | inhibition (N9 [5]): Active; inhibition (N9 [6]): Active |
| C[C@H](NC(=O)[C@@H](N)CCCCN)C(=O)N[C@@H](CCCCN)C(=O)N[C@@H](CCCNC(=N)N)C(=O)N[C@@H](CC(=O)O)C(=O)O (H-KAKRD-OH) | Non-toxic | inhibition (N9 [5]): Active; inhibition (N9 [6]): Active |
| CSCC[C@H](NC(=O)[C@@H](N)CO)C(=O)N[C@@H](CC(=O)O)C(=O)N[C@@H](C)C(=O)N[C@@H](CC(C)C)C(=O)N[C@@H](CC(=O)O)C(=O)N[C@@H](CC(C)C)C(=O)N[C@H](C(=O)N[C@@H](CC(=O)O)C(=O)N[C@@H](CCCCN)C(=O)N[C@@H](CC(C)C)C(=O)N[C@H](C(=O)N[C@@H](CO)C(=O)O)C(C)C)[C@@H](C)O (H-SMDALDLTDKLVS-OH) | Non-toxic |  |
| CSCC[C@H](NC(=O)[C@H](CO)NC(=O)[C@H](C)NC(=O)[C@@H](NC(=O)[C@H](CC(C)C)NC(=O)[C@H](CC(N)=O)NC(=O)[C@H](CCC(=O)O)NC(=O)[C@H](CC(C)C)NC(=O)[C@H](C)NC(=O)[C@@H](N)CC(=O)O)[C@@H](C)O)C(=O)N[C@@H](CC(=O)O)C(=O)O (H-DALENLTASMD-OH) | Non-toxic |  |
| CC[C@H](C)[C@H](NC(=O)[C@H](CS)NC(=O)CNC(=O)[C@@H](N)CCCCN)C(=O)N1CCC[C@H]1C(=O)N[C@@H](CC(C)C)C(=O)N1CCC[C@H]1C(=O)N[C@@H](CCCNC(=N)N)C(=O)O (H-KGCIPLPR-OH) | Non-toxic |  |
| CC(C)C[C@H](NC(=O)[C@H](C)NC(=O)[C@@H](N)CC(=O)O)C(=O)N[C@@H](CCC(=O)O)C(=O)N[C@@H](CC(N)=O)C(=O)O (H-DALEN-OH) | Non-toxic |  |
| CC[C@H](C)[C@H](NC(=O)[C@H](Cc1c[nH]c2ccccc12)NC(=O)[C@@H](N)C(C)C)C(=O)N[C@@H](CC(C)C)C(=O)N[C@@H](C)C(=O)N[C@@H](CCCCN)C(=O)N[C@@H](C)C(=O)N[C@@H](CCC(N)=O)C(=O)N[C@@H](CCCNC(=N)N)C(=O)N[C@@H](CC(=O)O)C(=O)O (H-VWILAKAQRD-OH) | Non-toxic |  |
